Laboratory results published in US8680065B2, “Oligonucleotides of human endogenous retrovirus 9 (ERV-9) long terminal repeat (LTR) and methods of use” (The United States of America, as represented by the …, priority 2008, dated 2014).

How the values were obtained:
[1] = test system: LNcaP cells; test: Cancer cell proliferation, oligonucleotide in combination with VP16, 48 hours; format: cell-based, human; details: oligonucleotide 15 μg/ml with VP16 30 ng/ml and 50 ng/ml
Description: FIG. 10 is a graph showing proliferation of LNcaP cells treated with ERV-9 U3 sense or antisense oligonucleotide (SEQ ID NOs: 1 and 2, respectively), in combination with VP16. Cells (4×10^4) were treated with oligonucleotide (15 μg/ml) alone or in combination with the concentrations of VP16 shown for 48 hours.
To test the effect of treating cancer cells with the combination of ERV-9 U3 oligonucleotide and VP16, six different cancer cell lines were analyzed: HT1080, (FIG. 7); MDA-231 (FIG. 8); K562 (FIG. 9); LNcaP (FIG. 10); HepG2 (FIG. 11); and MCF-7 (FIG. 12). Cells (4×10^4) were treated with 15 μg/ml ERV-9 U3 sense (SEQ ID NO: 1) or antisense (SEQ ID NO: 2) oligonucleotide alone or in combination with VP16 at a concentration of 30 ng/ml or 50 ng/ml. After 48 hours, cell proliferation was assessed by direct cell counting. Cell proliferation levels were expressed relative to GFP oligonucleotide control in the absence of VP16.

[2] = test system: LNcaP cells (a prostate cancer cell line); test: Cancer cell proliferation, oligonucleotide in LIPOFECTAMINE, 48 hours, direct cell counting; format: cell-based, human; details: oligonucleotide 10, 20 or 30 μg/ml
[3] = test system: HT1080 cells (a fibrosarcoma cell line); test: as above; format: cell-based, human; details: P<0.05
Description: FIG. 1 is a graph showing the effect of sense and antisense ERV-9 U3 oligonucleotides (SEQ ID NOs: 1 and 2, respectively) on proliferation of HT1080 cells (a fibrosarcoma cell line). Cells (4×10^4) were treated with ERV-9 U3 sense or antisense oligonucleotide formulated in LIPOFECTAMINE™ at the concentrations shown for 48 hours. Green fluorescent protein (GFP) sense oligonucleotide (SEQ ID NO: 3) was used as a control to measure the non-specific cytotoxicity of phosphorothioate-based oligonucleotides. Antisense oligonucleotides specific for Bcl-2 (G3139; SEQ ID NO: 4), telomerase (GRN163; SEQ ID NO: 5) and MDM2 (SEQ ID NO: 6) were also evaluated. Cell proliferation levels were expressed relative to cells transfected with 10 μg/ml GFP oligonucleotide.
To test the effect of the sense and antisense ERV-9 U3 oligonucleotides on proliferation of cancer cells, six different cancer cell lines were selected for transfection studies: HT1080, fibrosarcoma cells (FIG. 1); MDA-231, breast cancer cells (FIG. 2); K562, myelogenous leukemia cells (FIG. 3); LNcaP, prostate cancer cells (FIG. 4); HepG2, hepatocellular carcinoma cells (FIG. 5); and MCF-7, breast cancer cells (FIG. 6). Cells (4×10^4) were treated with ERV-9 U3 sense or antisense oligonucleotide formulated in LIPOFECTAMINE™ at an oligonucleotide concentration of 10, 20 or 30 μg/ml for 48 hours. Green fluorescent protein (GFP) sense oligonucleotide ([…]; SEQ ID NO: 3) was used as a control to measure the non-specific cytotoxicity of phosphorothioate-based oligonucleotides. Antisense oligonucleotides specific for Bcl-2 (G3139; TCTCCCAGCGTGCGCCAT; SEQ ID NO: 4), telomerase (GRN163; TAGGGTTAGACAA; SEQ ID NO: 5), and MDM2 ([…]; SEQ ID NO: 6) were also evaluated. […] After 48 hours of oligonucleotide treatment, cell proliferation was assessed by direct cell counting. Cell proliferation levels were expressed relative to cells transfected with 10 μg/ml GFP control oligonucleotide.

[4] = test system: human primary cells (keratinocytes, lymphocytes, monocytes); test: Proliferation of normal human primary cells, Example 3, summary; format: cell-based; details: 20 μg/ml, 48 hours
Description: To determine whether the inhibitory effect of ERV-9 U3 oligonucleotides is specific to cancer cells, human primary keratinocytes (FIG. 13), lymphocytes (FIG. 14), or monocytes (FIG. 15) were treated with ERV-9 U3 sense or antisense oligonucleotide and cell proliferation was evaluated. Cells (4×10^4) were transfected with ERV-9 U3 sense or antisense oligonucleotide (SEQ ID NOs: 1 and 2, respectively) formulated in LIPOFECTAMINE™ at a concentration of 20 μg/ml. GFP oligonucleotide was used as non-specific phosphorothioate oligonucleotide control. After 48 hours, cell proliferation was assessed by direct cell counting. Cell proliferation levels were expressed relative to GFP control.

[5] = test system: HT1080 cells; test: Cancer cell proliferation, U3 and U5 oligonucleotides, 72 hours; format: cell-based, human; details: 20 μg/ml
Description: FIG. 16 is a graph showing the effect of sense and antisense ERV-9 U3 (SEQ ID NOs: 1, 2, 7, 8, 9, and 10) and U5 (SEQ ID NOs: 11 and 12) oligonucleotides on proliferation of HT1080 cells. Cells (4×10^4) were treated with oligonucleotide formulated in LIPOFECTAMINE™ at a concentration of 20 μg/ml for 72 hours. GFP sense oligonucleotide was used as a control to measure the non-specific cytotoxicity of phosphorothioate-based oligonucleotides. Antisense oligonucleotides G3139, GRN163, and MDM2 were also evaluated. Cell proliferation levels were expressed relative to cells transfected with GFP oligonucleotide. All U3 and U5 sense and antisense oligonucleotides inhibited cell proliferation to a greater extent that GFP control. In addition, with the exception of the U5 sense oligonucleotide, all U3 and U5 oligonucleotides inhibited cell proliferation better than the G3139, GRN163 and MDM2 antisense oligonucleotides.
HT1080 or MDA-231 cells (4×10^4 cells) were treated with ERV-9 LTR (U3 or U5) sense or antisense oligonucleotides formulated in LIPOFECTAMINE™ at a concentration of 20 μg/ml for 72 hours. GFP sense oligonucleotide was used as a control to measure the non-specific cytotoxicity of phosphorothioates-based oligonucleotides. Relative cell proliferation levels were expressed as percentage of GFP oligonucleotide transfected control. The results are shown in FIG. 16 (HT1080 cells) and FIG. 17 (MDA-231 cells).

[6] = oligonucleotide 20 μg/ml and 30 μg/ml

Substance	cell proliferation relative to GFP oligonucleotide control [1]	cell proliferation relative to GFP oligonucleotide [2]	cell proliferation relative to GFP oligonucleotide ([3]; oligonucleotide 10 μg/ml)	cell proliferation relative to GFP oligonucleotide [3, 6]	cell proliferation of human primary cells relative to control GFP oligonucleotide [4]	cell proliferation of human primary cells relative to control GFP oligonucleotide ([4]; listed as ERV-9 U3 antisense oligonucleotide)	cell proliferation relative to GFP oligonucleotide transfected control [5]	cell proliferation of human primary cells relative to control GFP oligonucleotide ([4]; listed as ERV-9 U3 sense oligonucleotide)
U3AS: ERV-9 LTR U3 antisense oligonucleotide CTGATTGGTGTGTTTACAAACCTTGAG, phosphorothioate internucleoside linkages at each position (all phosphorothioate, sugars by position and methylation of C not given here) [Oligo U3AS]	inhibited cell proliferation better than GFP oligonucleotide	inhibited cell proliferation better than GFP control oligonucleotide at all three oligonucleotide concentrations	inhibited cell proliferation better than GFP oligonucleotide	inhibited cell proliferation better than GFP control and G3139, GRN163 and MDM2 antisense oligonucleotides	neither U3 sense nor antisense oligonucleotides had an effect on the proliferation of human primary cells	did not significantly alter cell proliferation of human primary cells, relative to control GFP oligonucleotide	inhibited cell proliferation better than G3139, GRN163 and MDM2 oligonucleotides	–
U3S: ERV-9 LTR U3 sense oligonucleotide CTCAAGGTTTGTAAACACACCAATCAG, phosphorothioate internucleoside linkages at each position (all phosphorothioate, sugars by position and methylation of C not given here) [Oligo U3S]	inhibited cell proliferation better than GFP oligonucleotide	inhibited cell proliferation better than GFP control oligonucleotide at all three oligonucleotide concentrations	inhibited cell proliferation better than GFP oligonucleotide	inhibited cell proliferation better than GFP control and G3139, GRN163 and MDM2 antisense oligonucleotides	neither U3 sense nor antisense oligonucleotides had an effect on the proliferation of human primary cells	–	inhibited cell proliferation better than G3139, GRN163 and MDM2 oligonucleotides	did not significantly alter cell proliferation of human primary cells, relative to control GFP oligonucleotide
